Reference: patent publication US10300067B2, “Tetrahydropyridopyrimidine compound or salt thereof” (TAIHO PHARMACEUTICAL CO., LTD., priority 2014, dated 2019)

Assays:
Type in all cases: cell-based
human androgen receptor = human androgen receptor (Homo sapiens (Human), UniProt P10275); test: Antagonist activity for AR (pMMTV-luc reporter transcription activity in transfected COS-7 cells, DHT 1 nmol/L); settings: for IC50: 50% transcription activity inhibition concentration, COS-7 cells with pMMTV-luc and pEX-hAR, DHT 1 nmol/L, 24 hours; for antagonist activity for AR (in words): COS-7 reporter assay
Protocol: Antagonist activity for AR was evaluated according to the following method. COS-7 cells (ATCC) were transfected with pMMTV-luc vector (reporter plasmid having, as an androgen response element, […] long terminal repeat) and pEX-hAR vector (human androgen receptor expression vector: which expresses human AR gene under control of CMV promoter) by using Nucleofector (registered trademark) Kit R (Lonza) as a transfection reagent and Amaxa (Lonza). The COS-7 cells obtained after transfection were seeded in a clear bottom 96 well microplate (BD) at 1.5×10^4/well with phenol red free RPMI1640 containing 10% charcoal-treated fetal bovine serum (hereinbelow, DCC-FBS) (hereinbelow, the medium is referred to as an evaluation medium), and then cultured overnight. […] Then, the transcription activity value was measured. The transcription activity was measured by using Bright-Glo™ Luciferase Assay System (Promega).

androgen receptor = androgen receptor (Homo sapiens (Human), UniProt P10275, T878A); test: Activity of reducing expression level of androgen receptor (Western blotting of LNCaP cell lysate); settings: 48 hours
Protocol: AR positive human prostate cancer cells LNCaP were seeded in a clear bottom 6 well microplate (BD) at 3.5×10^5/well with phenol red free RPMI1640 containing 5% FBS (hereinbelow, the medium is referred to as an evaluation medium), and then cultured overnight. The culture was added with the evaluation medium containing the compound of Examples or the compound of Comparative Examples such that the final concentration of the compound of Examples or the compound of Comparative Examples was 10000 nmol/L, followed by culture for 48 hours. After culture for 48 hours, the medium was removed and the cells were washed with PBS and added with 0.1 mL of Lysis buffer (M-PER added with Protease Inhibitor Cocktail), followed by keeping at 4° C. for 20 minutes. After cell lysis, the cell solution was centrifuged to recover the supernatant as cell lysate. […] The antibody-reacting band (anti AR receptor) was quantified by LAS-3000 (FUJIFILM) using Super Signal West Pico Substrate (Thermo Scientific) as a detection reagent.

[1] = system: AR positive human prostate cancer cells VCaP; test: Agonist activity for AR (cell proliferation rate of VCaP cells); settings: 72 hours, 2 to 10000 nmol/L, more than 10% at any concentration = agonist activity for AR
Protocol: AR positive human prostate cancer cells VCaP (In Vivo 15:163-168, 2001) were seeded in a clear bottom 96 well microplate (BD) at 1.5×10^4/well with phenol red free RPMI1640 containing 5% DCC-FBS (hereinbelow, the medium is referred to as an evaluation medium), and then cultured overnight. The culture was added with the evaluation medium containing the compound of Examples or the compound of Comparative Examples (final concentration of the compound of Examples or the compound of Comparative Examples: 2, 5, 14, 41, 123, 370, 1111, 3333, or 10000 nmol/L), followed by culture for 72 hours. Then, the number of viable cells was counted (test group). As a control, the cells were cultured after being added with the evaluation medium only, and the number of viable cells was counted (control group). The number of viable cells was measured by using CellTiter-Glo™ Luminescent Cell Viability Assay (Promega). From the measured number of viable cells, cell proliferation rate with respect to the compound of Examples or the compound of Comparative Examples was calculated based on the number of viable cells measured in the case of using the evaluation medium only. Cell proliferation rate (%) =(Number of viable cells in test group−Number of viable cells in control group)/(Number of viable cells in control group)×100
By considering an error in the number of viable cells measured in the case of using the evaluation medium only, when the cell proliferation rate was more than 10% at any concentration of the 9 concentrations which had been evaluated, it was determined to have an agonist activity for AR.

androgen receptor, sequence (P10275 whole entry T878A): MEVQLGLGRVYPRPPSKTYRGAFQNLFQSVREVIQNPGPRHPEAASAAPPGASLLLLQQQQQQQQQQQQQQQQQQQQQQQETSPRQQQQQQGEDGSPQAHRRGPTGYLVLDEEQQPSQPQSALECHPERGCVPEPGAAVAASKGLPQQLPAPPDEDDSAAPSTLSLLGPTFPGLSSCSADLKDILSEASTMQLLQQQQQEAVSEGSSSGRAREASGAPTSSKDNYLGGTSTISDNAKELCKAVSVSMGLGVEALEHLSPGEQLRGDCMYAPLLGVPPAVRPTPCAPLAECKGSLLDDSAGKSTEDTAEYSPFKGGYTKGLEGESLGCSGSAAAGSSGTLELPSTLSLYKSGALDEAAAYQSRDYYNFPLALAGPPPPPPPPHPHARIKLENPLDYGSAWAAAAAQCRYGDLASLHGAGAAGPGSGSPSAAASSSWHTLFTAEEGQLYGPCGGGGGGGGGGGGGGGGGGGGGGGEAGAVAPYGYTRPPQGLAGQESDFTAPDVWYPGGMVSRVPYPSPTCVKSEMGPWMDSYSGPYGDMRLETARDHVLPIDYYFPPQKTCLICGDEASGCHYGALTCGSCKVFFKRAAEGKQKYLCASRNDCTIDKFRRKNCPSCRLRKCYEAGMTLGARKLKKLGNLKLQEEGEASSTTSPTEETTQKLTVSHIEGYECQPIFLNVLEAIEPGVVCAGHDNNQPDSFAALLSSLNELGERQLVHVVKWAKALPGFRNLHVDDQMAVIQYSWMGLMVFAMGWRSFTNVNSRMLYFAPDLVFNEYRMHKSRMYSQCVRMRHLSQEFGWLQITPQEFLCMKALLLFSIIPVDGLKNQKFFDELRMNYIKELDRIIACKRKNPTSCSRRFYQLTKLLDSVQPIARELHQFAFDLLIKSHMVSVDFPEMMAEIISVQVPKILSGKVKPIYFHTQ
human androgen receptor, sequence (P10275 whole entry): as the sequence (P10275 whole entry T878A) above, with A878T counted along it

## CC(C)Oc1ccc(Nc2ncnc3c2CN(c2ccc(C#N)c(C(F)(F)F)c2)CC3)cc1 [Comparative Example 2, 4-(4-((4-Isopropoxyphenyl)amino)-7,8-dihydropyrido[4,3-d]pyrimidin-6(5H)-yl)-2-(trifluoromethyl)benzonitrile, reference compound]
Human androgen receptor
  IC50: > 10000 nM
  antagonist activity for AR (in words): no antagonist activity for AR
Androgen receptor
  10 μM AR expression reducing activity: <10%

## CC(C)Oc1ccc(Nc2nnc3n2CCN(c2ccc(C#N)c(C(F)(F)F)c2)C3)cc1 [Comparative Example 3, 4-(3-((4-Isopropoxyphenyl)amino)-5,6-dihydro[1,2,4]triazolo[4,3-a]pyrazin-7(8H)-yl)-2-(trifluoromethyl)benzonitrile, reference compound]
Human androgen receptor
  IC50: > 10000 nM
  antagonist activity for AR (in words): no antagonist activity for AR
Androgen receptor
  10 μM AR expression reducing activity: <10%

## FC(F)(F)c1ccc(Nc2ncnc3c2CCN(c2ncccc2Cl)C3)cc1 [Comparative Example 4, 7-(3-Chloropyridin-2-yl)-N-(4-(trifluoromethyl)phenyl)-5,6,7,8-tetrahydropyrido[3,4-d]pyrimidin-4-amine, reference compound]
Human androgen receptor
  IC50: > 10000 nM
  antagonist activity for AR (in words): no antagonist activity for AR
Androgen receptor
  10 μM AR expression reducing activity: <10%

## COc1ccc(Nc2ncnc3c2CCN(c2ccc(C#N)c(C(F)(F)F)c2)C3)cc1 [Example 3, 4-(4-((4-Methoxyphenyl)amino)-5,6-dihydropyrido[3,4-d]pyrimidin-7(8H)-yl)-2-(trifluoromethyl)benzonitrile]
Human androgen receptor
  IC50: 530 nM
[1]
  Cell proliferation rate (%): 1.0%
Androgen receptor
  10 μM AR expression reducing activity: reduced (When the AR expression reducing activity is 50% or more, it is described as “reduced”)

## N#Cc1ccc(N2CCc3c(ncnc3Nc3cccc(-c4ccccc4)c3)C2)cc1C(F)(F)F [Example 4, 4-(4-((1,1′-Biphenyl)-3-ylamino)-5,6-dihydropyrido[3,4-d]pyrimidin-7(8H)-yl)-2-(trifluoromethyl)benzonitrile]
Human androgen receptor
  IC50: 620 nM
Androgen receptor
  10 μM AR expression reducing activity: reduced (When the AR expression reducing activity is 50% or more, it is described as “reduced”)

## CC(C)(O)c1sc(Nc2ncnc3c2CCN(c2ccc(C#N)c(C(F)(F)F)c2)C3)nc1C(F)(F)F [Example 8, 4-(4-((5-(2-Hydroxypropan-2-yl)-4-(trifluoromethyl)thiazol-2-yl)amino)-5,6-dihydropyrido[3,4-d]pyrimidin-7(8H)-yl)-2-(trifluoromethyl)benzonitrile]
Human androgen receptor
  IC50: 250 nM
Androgen receptor
  10 μM AR expression reducing activity: reduced (When the AR expression reducing activity is 50% or more, it is described as “reduced”)

## N#Cc1ccc(N2CCc3c(ncnc3Nc3ccc(C4(O)CC4)cn3)C2)cc1C(F)(F)F [Example 12, 4-(4-((5-(1-Hydroxycyclopropyl)pyridin-2-yl)amino)-5,6-dihydropyrido[3,4-d]pyrimidin-7(8H)-yl)-2-(trifluoromethyl)benzonitrile]
Human androgen receptor
  IC50: 170 nM
Androgen receptor
  10 μM AR expression reducing activity: reduced (When the AR expression reducing activity is 50% or more, it is described as “reduced”)

## N#Cc1ccc(N2CCc3c(ncnc3Nc3nc(C(F)(F)F)c(C(=O)NCC(F)(F)F)s3)C2)cc1C(F)(F)F [Example 26, 2-((7-(4-Cyano-3-(trifluoromethyl)phenyl)-5,6,7,8-tetrahydropyrido[3,4-d]pyrimidin-4-yl)amino)-N-(2,2,2-trifluoroethyl)-4-(trifluoromethyl)thiazol-5-carboxamide]
Human androgen receptor
  IC50: 60 nM
[1]
  Cell proliferation rate (%): 5.7%
Androgen receptor
  10 μM AR expression reducing activity: reduced (When the AR expression reducing activity is 50% or more, it is described as “reduced”)

## C[C@@H](NC(=O)c1sc(Nc2ncnc3c2CCN(c2ccc(C#N)c(C(F)(F)F)c2)C3)nc1C(F)(F)F)c1nnco1 [Example 37, (R)—N-(1-(1,3,4-Oxadiazol-2-yl)ethyl)-2-((7-(4-cyano-3-(trifluoromethyl)phenyl)-5,6,7,8-tetrahydropyrido[3,4-d]pyrimidin-4-yl)amino)-4-(trifluoromethyl) thiazol-5-carboxamide]
Human androgen receptor
  IC50: 170 nM
[1]
  Cell proliferation rate (%): 0.9%
Androgen receptor
  10 μM AR expression reducing activity: reduced (When the AR expression reducing activity is 50% or more, it is described as “reduced”)

## C[C@@H](NC(=O)c1nnc(Nc2ncnc3c2CCN(c2ccc(C#N)c(C(F)(F)F)c2)C3)s1)c1nnco1 [Example 39, (R)—N-(1-(1,3,4-Oxadiazol-2-yl)ethyl)-5-((7-(4-cyano-3-(trifluoromethyl)phenyl)-5,6,7,8-tetrahydropyrido[3,4-d]pyrimidin-4-yl)amino)-1,3,4-thiadiazol-2-carboxamide]
Human androgen receptor
  IC50: 2050 nM
[1]
  Cell proliferation rate (%): 5.5%
Androgen receptor
  10 μM AR expression reducing activity: reduced (When the AR expression reducing activity is 50% or more, it is described as “reduced”)

## CC(C)(O)c1ccc(Nc2ncnc3c2CCN(c2ccc(C#N)c(Br)c2)C3)nc1 [Example 44, 2-Bromo-4-(4-((5-(2-hydroxypropan-2-yl)pyridin-2-yl)amino)-5,6-dihydropyrido[3,4-d]pyrimidin-7(8H)-yl)benzonitrile]
Human androgen receptor
  IC50: 50 nM
[1]
  Cell proliferation rate (%): 5.2%
Androgen receptor
  10 μM AR expression reducing activity: reduced (When the AR expression reducing activity is 50% or more, it is described as “reduced”)

## CC(C)(O)c1ccc(Nc2ncnc3c2CCN(c2ccc(C#N)c(Cl)c2)C3)nc1F [Example 46, 2-Chloro-4-(4-((6-fluoro-5-(2-hydroxypropan-2-yl)pyridin-2-yl)amino)-5,6-dihydropyrido[3,4-d]pyrimidin-7 (8H)-yl)benzonitrile]
Human androgen receptor
  IC50: 250 nM
[1]
  Cell proliferation rate (%): 1.0%
Androgen receptor
  10 μM AR expression reducing activity: reduced (When the AR expression reducing activity is 50% or more, it is described as “reduced”)

## CC(C)(O)c1cnc(Nc2ncnc3c2CCN(c2ccc(C#N)c(C(F)(F)F)c2)C3)cc1F [Example 47, 4-(4-((4-Fluoro-5-(2-hydroxypropan-2-yl)pyridin-2-yl)amino)-5,6-dihydropyrido[3,4-d]pyrimidin-7 (8H)-yl)-2-(trifluoromethyl)benzonitrile]
Human androgen receptor
  IC50: 70 nM
[1]
  Cell proliferation rate (%): 1.9%
Androgen receptor
  10 μM AR expression reducing activity: reduced (When the AR expression reducing activity is 50% or more, it is described as “reduced”)

## N#Cc1ccc(N2CCc3c(ncnc3Nc3ccc(C(=O)NCC(F)(F)F)nn3)C2)cc1Cl [Example 49, 6-((7-(3-Chloro-4-cyanophenyl)-5,6,7,8-tetrahydropyrido[3,4-d]pyrimidin-4-yl)amino)-N-(2,2,2-trifluoroethyl)pyridazine-3-carboxamide]
Human androgen receptor
  IC50: 2 nM
Androgen receptor
  10 μM AR expression reducing activity: reduced (When the AR expression reducing activity is 50% or more, it is described as “reduced”)

## CC(C)(COc1ncc(Nc2ncnc3c2CCN(c2ccc(C#N)c(C(F)(F)F)c2)C3)cc1F)n1cnnn1 [Example 50, 4-(4-((5-Fluoro-6-(2-methyl-2-(1H-tetrazol-1-yl)propoxy)pyridin-3-yl)amino)-5,6-dihydropyrido[3,4-d]pyrimidin-7(8H)-yl)-2-(trifluoromethyl)benzonitrile]
Human androgen receptor
  IC50: 320 nM
[1]
  Cell proliferation rate (%): −3.7%
Androgen receptor
  10 μM AR expression reducing activity: reduced (When the AR expression reducing activity is 50% or more, it is described as “reduced”)

## CC(C)(O)c1ccc(Nc2ncnc3c2CCN(c2ccc(C#N)c(C(F)(F)F)c2)C3)cc1 [Example 57]
[1]
  Cell proliferation rate (%): 5.0%
Androgen receptor
  10 μM AR expression reducing activity: reduced (When the AR expression reducing activity is 50% or more, it is described as “reduced”)
